Experimental data taken from paper PMC8308639, “Synthesis and Human Carbonic Anhydrase I, II, IX, and XII Inhibition Studies of Sulphonamides Incorporating Mono-, Bi- and Tricyclic Imide Moieties” (Pharmaceuticals, 2021).
Structures can show the parent of a compound that is named as a salt. Where two headings read alike, the source gives them in different places.

Experiments:
hCA I = hCA I (Homo sapiens, UniProt P00915); assay: CA-catalysed CO2 hydration stopped-flow inhibition assay, hCA I
hCA IX = hCA IX (Homo sapiens, UniProt Q16790); assay: CA-catalysed CO2 hydration stopped-flow inhibition assay, hCA IX; settings: for Ki: stopped-flow CO2 hydration, mean ± standard error, three assays; for Selectivity Ratio A = hCA II/IX: ratio of Ki hCA II / Ki hCA IX
Qualitative solubility = format: physicochemical
hCA II = hCA II (Homo sapiens, UniProt P00918); assay: CA-catalysed CO2 hydration stopped-flow inhibition assay, hCA II
hCA XII = hCA XII (Homo sapiens, UniProt O43570); assay: CA-catalysed CO2 hydration stopped-flow inhibition assay, hCA XII; settings: for Ki: stopped-flow CO2 hydration, mean ± standard error, three assays; for Selectivity Ratio B = hCA II/XII: ratio of Ki hCA II / Ki hCA XII
[1] = Ki (nM) hCA II, mean ± standard error, three assays

Chain of hCA I (P00915 whole entry): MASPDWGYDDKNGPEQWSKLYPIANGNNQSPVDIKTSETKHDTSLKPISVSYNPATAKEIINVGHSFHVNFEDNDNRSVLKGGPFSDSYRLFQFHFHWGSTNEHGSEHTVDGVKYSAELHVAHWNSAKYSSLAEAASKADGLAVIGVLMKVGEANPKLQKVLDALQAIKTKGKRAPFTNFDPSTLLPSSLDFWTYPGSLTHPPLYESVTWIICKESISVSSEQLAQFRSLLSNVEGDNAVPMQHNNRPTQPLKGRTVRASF
Chain of hCA XII (O43570 25-354): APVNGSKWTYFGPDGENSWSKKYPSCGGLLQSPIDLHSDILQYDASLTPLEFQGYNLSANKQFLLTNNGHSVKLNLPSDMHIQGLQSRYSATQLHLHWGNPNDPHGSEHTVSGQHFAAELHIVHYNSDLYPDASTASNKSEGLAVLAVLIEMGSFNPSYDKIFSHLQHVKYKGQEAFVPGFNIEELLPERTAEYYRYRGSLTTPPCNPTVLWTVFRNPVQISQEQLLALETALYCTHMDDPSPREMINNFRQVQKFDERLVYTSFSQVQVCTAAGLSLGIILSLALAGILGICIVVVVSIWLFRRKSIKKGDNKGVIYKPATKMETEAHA

Structure (SMILES)	melting point	solubility in water (Qualitative solubility)	Ki (hCA IX; Ki (nM) hCA IX)	Ki (hCA XII; Ki (nM) hCA XII)	other results
NS(=O)(=O)c1ccc(N2C(=O)c3cccc4c(S(=O)(=O)O)ccc(c34)C2=O)cc1 (as salt: potassium) [Compound 1, 4-(4-sulfo-1,8-napthalic-1,3-dioxopyridine) potassium benzenesulphonamide]	277 °C	–	–	–	–
NS(=O)(=O)c1ccc(N2C(=O)c3cccc4c(S(=O)(=O)O)ccc(c34)C2=O)cc1 [Compound 1, 4-(4-sulfo-1,8-napthalic-1,3-dioxopyridine) potassium benzenesulphonamide]	–	fully soluble	–	–	Ki (hCA I; read-out: Ki (nM) hCA I, stopped-flow CO2 hydration, mean ± standard error, three assays): 49 ± 3.2 nM; Ki (hCA IX; read-out: Ki (nM) hCA IX): 7770 ± 145 nM; Ki (hCA II; read-out: Ki (nM) hCA II, mean ± standard error, three assays): 13 ± 0.9 nM
NS(=O)(=O)c1ccc(CCN2C(=O)C=CC2=O)cc1 [Compound 2, 4-(2-(2,5-dioxo-2H-pyrrol-1(5H)-yl)ethyl)benzenesulphonamide]	210 °C	insoluble	7420 ± 348 nM	69 ± 4.5 nM	–
NS(=O)(=O)c1ccc2sc(N3C(=O)c4c(Cl)c(Cl)c(Cl)c(Cl)c4C3=O)nc2c1 [Compound 3, 2-(4,5,6,7-tetrachloro-1,3-dioxoisoindolin-2-yl) benzo[d]thiazole-5-sulphonamide]	302.2 °C	fully soluble	933 ± 56 nM	80 ± 7 nM	Ki (hCA I): 258 ± 12 nM; Selectivity Ratio A = hCA II/IX (hCA IX): 0.795
NS(=O)(=O)c1ccc2sc(N3C(=O)c4c(Br)c(Br)c(Br)c(Br)c4C3=O)nc2c1 [Compound 4, 2-(4,5,6,7-Tetrabromo-1,3-dioxoisoindolin-2-yl) Benzo[d]Thiazole-5-Sulphonamide]	–	insoluble	4030 ± 237 nM	87 ± 6 nM	Ki (hCA I): 463 ± 29 nM; Selectivity Ratio A = hCA II/IX (hCA IX): 0.011; Selectivity Ratio B = hCA II/XII (hCA XII): 0.506; Ki (hCA II; [1]): 44 ± 1.9 nM
NS(=O)(=O)c1ccc(N2C(=O)c3ccc([N+](=O)[O-])cc3C2=O)c(F)c1 [Compound 5, 3-fluoro-4-(5-nitro-1,3-dioxoisoindolin-2-yl) benzenesulphonamide]	232 °C	insoluble	4900 ± 300 nM	75 ± 4 nM	Ki (hCA I): 400 ± 31 nM; Selectivity Ratio B = hCA II/XII (hCA XII): 0.061; Ki (hCA II; [1]): 4.6 ± 0.3 nM
NS(=O)(=O)c1ccc(N2C(=O)c3c(Cl)c(Cl)c(Cl)c(Cl)c3C2=O)cc1 [Compound 6, 4-(4,5,6,7-tetrachloro-1,3-dioxoisoindolin-2-yl) benzenesulphonamide]	–	insoluble	–	–	–
NS(=O)(=O)c1ccc(CN2C(=O)c3c(Cl)c(Cl)c(Cl)c(Cl)c3C2=O)cc1 [Compound 7, 4-((4,5,6,7-Tetrachloro-1,3-dioxoisoindolin-2-yl) Methyl) Benzenesulphonamide]	–	insoluble	103 ± 5 nM	–	–
NS(=O)(=O)c1ccc(CCN2C(=O)c3c(Cl)c(Cl)c(Cl)c(Cl)c3C2=O)cc1 [Compound 8, 4-(2-(4,5,6,7-tetrachloro-1,3-dioxoisoindolin-2-yl)ethyl)benzenesulphonamide]	286 °C	insoluble	–	226 ± 13 nM	–
NS(=O)(=O)c1cccc(N2C(=O)c3c(Cl)c(Cl)c(Cl)c(Cl)c3C2=O)c1 [Compound 9, 3-(4,5,6,7-tetrachloro-1,3-dioxoisoindolin-2-yl) benzenesulphonamide]	308 °C	insoluble	498 ± 34 nM	316 ± 28 nM	–
NS(=O)(=O)c1ccccc1N1C(=O)c2c(Cl)c(Cl)c(Cl)c(Cl)c2C1=O [Compound 10, 2-(4,5,6,7-tetrachloro-1,3-dioxoisoindolin-2-yl) benzenesulphonamide]	313 °C	insoluble	559 ± 26 nM	309 ± 24 nM	–
NS(=O)(=O)c1ccc(N2C(=O)c3c(Cl)c(Cl)c(Cl)c(Cl)c3C2=O)c(F)c1 [Compound 11, 3-fluoro-4-(4,5,6,7-tetrachloro-1,3-dioxoisoindolin-2-yl) benzenesulphonamide]	278 °C	insoluble	88 ± 7 nM	14 ± 1 nM	–
NS(=O)(=O)c1ccc(N2C(=O)c3c(Cl)c(Cl)c(Cl)c(Cl)c3C2=O)c(Cl)c1 [Compound 12, 3-chloro-4-(4,5,6,7-tetrachloro-1,3-dioxoisoindolin-2-yl)benzenesulphonamide]	303 °C	insoluble	49 ± 0.4 nM	22 ± 1.7 nM	–
NS(=O)(=O)c1ccc(N2C(=O)c3c(Cl)c(Cl)c(Cl)c(Cl)c3C2=O)c(Br)c1 [Compound 13, 3-bromo-4-(4,5,6,7-tetrachloro-1,3-dioxoisoindolin-2-yl) benzenesulphonamide]	265 °C	insoluble	40 ± 1.5 nM	99 ± 3.5 nM	–
NS(=O)(=O)c1ccc(S(=O)(=O)Nc2cccc3c(Cl)c[nH]c23)cc1 [IND, Indisulam, reference compound]	–	–	–	–	Ki (hCA XII; read-out: Ki (nM) hCA XII): 3.4 ± 0.2 nM
